PubChem BioAssay AID330 (DTP/NCI, 2004)
Where “and” joins values, the source holds several entries; their conditions need not be identical. Equal entries are not always repeated. Inconclusive results and toxic doses are left out. Rule for the calls: active = survival T/C of 150% or more; inactive = T/C below 125% in these data.

Test system: P388 leukemia ip, CD2F1 mice, survival T/C
Test: NCI In Vivo Anticancer Drug Screen. Data for tumor model P388 Leukemia (intraperitoneal) in CD2F1 (CDF1) mice
Conditions: endpoint: median survival time, higher = longer survival
Outline: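 Mice carrying the transplanted tumor received test compound or vehicle. Survival was recorded in each group, and the value is the treated-group measurement divided by that of the vehicle-treated control group.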

[1] = dose: 25.0 mg/kg/injection, schedule: Q01DX009 (ip), vehicle: saline with Tween-80
[2] = dose: 12.5 mg/kg/injection, schedule: Q01DX009 (ip), vehicle: Klucel (hydroxypropylcellulose) (HPC)
[3] = dose: 25.0 mg/kg/injection, schedule: Q01DX009 (ip), vehicle: Klucel (hydroxypropylcellulose) (HPC)
[4] = dose: 100.0 mg/kg/injection, schedule: Q04DX003 (ip), vehicle: Klucel (hydroxypropylcellulose) (HPC)
[5] = dose: 200.0 mg/kg/injection, schedule: Q04DX003 (ip), vehicle: Klucel (hydroxypropylcellulose) (HPC)
[6] = dose: 400.0 mg/kg/injection, schedule: Q04DX003 (ip), vehicle: Klucel (hydroxypropylcellulose) (HPC)
[7] = dose: 60.0 mg/kg/injection, schedule: Q01DX005 (ip), vehicle: Klucel (hydroxypropylcellulose) (HPC)
[8] = dose: 120.0 mg/kg/injection, schedule: Q01DX005 (ip), vehicle: Klucel (hydroxypropylcellulose) (HPC)
[9] = dose: 6.25 mg/kg/injection, schedule: Q01DX009 (ip), vehicle: saline
[10] = dose: 50.0 mg/kg/injection, schedule: Q01DX005 (ip), vehicle: saline

Measured: T/C

Cc1cc(=NCCCN(C)C)c2ccc3c(ccc4c(=NCCCN(C)C)cc(C)n(O)c43)c2n1O
inactive: dose: 6.25 mg/kg/injection, schedule: Q01DX009 (ip), vehicle: water 106 % of control and 111 % of control | dose: 12.5 mg/kg/injection, schedule: Q01DX009 (ip), vehicle: distilled water + alcohol 102 % of control | dose: 12.5 mg/kg/injection, schedule: Q01DX009 (ip), vehicle: water 100 % of control and 103 % of control and 109 % of control | dose: 25.0 mg/kg/injection, schedule: Q01DX009 (ip), vehicle: distilled water + alcohol 102 % of control | dose: 25.0 mg/kg/injection, schedule: Q01DX009 (ip), vehicle: water 108 % of control and 116 % of control | dose: 50.0 mg/kg/injection, schedule: Q01DX009 (ip), vehicle: distilled water + alcohol 105 % of control

COc1ccc(C2CC(c3ccccc3)=Nc3ccccc3S2)cc1OC (centres undefined)
inactive: dose: 50.0 mg/kg/injection, schedule: Q01DX009 (ip), vehicle: Klucel (hydroxypropylcellulose) (HPC) 102 % of control | dose: 100.0 mg/kg/injection, schedule: Q01DX009 (ip), vehicle: Klucel (hydroxypropylcellulose) (HPC) 90 % of control | dose: 200.0 mg/kg/injection, schedule: Q01DX009 (ip), vehicle: Klucel (hydroxypropylcellulose) (HPC) 96 % of control

COc1ccc(/C=C/c2ccc3ccccc3[n+]2C)cc1
inactive: dose: 11.0 mg/kg/injection, schedule: Q01DX009 (ip), vehicle: saline with Tween-80 122 % of control | dose: 12.5 mg/kg/injection, schedule: Q01DX009 (ip), vehicle: saline with Tween-80 124 % of control | [1] 122 % of control

CC1[C@@H]2[C@@H](C=C3C4CCC5Cc6nc7c(nc6C[C@@]5(C)C4C[C@H](O)[C@]32CO)CC2CCC3C4=C[C@H]5O[C@@]6(O[C@@](C)(CO)C[C@@H]6O)C(C)[C@@]5(O)[C@]4(C)[C@@H](O)CC3[C@]2(C)C7)O[C@]12CCC(C)(C)O2 (some centres undefined)
inactive: dose: 12.5 micrograms/kg/injection, schedule: Q01DX009 (ip), vehicle: saline + alcohol 107 % of control | dose: 25.0 micrograms/kg/injection, schedule: Q01DX009 (ip), vehicle: saline + alcohol 116 % of control | dose: 50.0 micrograms/kg/injection, schedule: Q01DX009 (ip), vehicle: saline + alcohol 107 % of control | dose: 100.0 micrograms/kg/injection, schedule: Q01DX009 (ip), vehicle: saline + alcohol 100 % of control

CC(=O)Nc1ccc(C(=O)CCl)c(Cl)c1
inactive: [2] 104 % of control | [3] 107 % of control

CCCCCCCCCCCN(C)C
inactive: dose: 50.0 mg/kg/injection, schedule: Q01DX005 (ip), vehicle: saline with Tween-80 105 % of control | dose: 100.0 mg/kg/injection, schedule: Q01DX005 (ip), vehicle: saline with Tween-80 105 % of control

O=C1c2ccccc2C(=O)N1C(=NCc1ccccc1)c1ccccc1
inactive: [4] 104 % of control | [5] 104 % of control | [6] 109 % of control

CSc1nc(=O)n(CCC#N)nc1SC
inactive: [7] 98 % of control | [8] 92 % of control | dose: 240.0 mg/kg/injection, schedule: Q01DX005 (ip), vehicle: Klucel (hydroxypropylcellulose) (HPC) 92 % of control

COC(=O)COC(=O)CCCCC(=O)OCC(=O)OC
inactive: dose: 50.0 mg/kg/injection, schedule: Q01DX009 (ip), vehicle: saline 111 % of control | dose: 100.0 mg/kg/injection, schedule: Q01DX009 (ip), vehicle: saline 109 % of control | dose: 200.0 mg/kg/injection, schedule: Q01DX009 (ip), vehicle: saline 103 % of control

O=C1C2=C(Nc3ccccc3N2)OC1c1ccccc1Cl (centres undefined)
inactive: [7] 97 % of control | [8] 97 % of control

O=C(CC(O)(c1ccccc1)c1ccccc1)SCc1ccccc1
inactive: [4] 102 % of control | [5] 98 % of control | [6] 110 % of control

O=[N+]([O-])C(Br)(CO)CO
inactive: dose: 3.12 mg/kg/injection, schedule: Q01DX009 (ip), vehicle: saline 100 % of control | [9] 103 % of control | dose: 12.5 mg/kg/injection, schedule: Q01DX009 (ip), vehicle: saline 114 % of control and 118 % of control

CCOC(=O)C1C(=O)N2C(=O)C(NC(C)=O)=C(O)C2C1c1ccc(Cl)cc1 (centres undefined)
inactive: dose: 100.0 mg/kg/injection, schedule: Q04DX002 (ip), vehicle: saline with Tween-80 100 % of control | dose: 200.0 mg/kg/injection, schedule: Q04DX002 (ip), vehicle: saline with Tween-80 105 % of control | dose: 400.0 mg/kg/injection, schedule: Q04DX002 (ip), vehicle: saline with Tween-80 98 % of control

O=C1Nc2cnc(Cl)nc2Nc2ccc(Cl)cc21
inactive: dose: 50.0 mg/kg/injection, schedule: Q01DX005 (ip), vehicle: Klucel (hydroxypropylcellulose) (HPC) 92 % of control | dose: 100.0 mg/kg/injection, schedule: Q01DX005 (ip), vehicle: Klucel (hydroxypropylcellulose) (HPC) 99 % of control | dose: 200.0 mg/kg/injection, schedule: Q01DX005 (ip), vehicle: Klucel (hydroxypropylcellulose) (HPC) 89 % of control

CNCc1cccc2ccnc(C)c12
inactive: dose: 100.0 mg/kg/injection, schedule: Q01DX001 (ip), vehicle: saline with Tween-80 100 % of control | dose: 200.0 mg/kg/injection, schedule: Q01DX001 (ip), vehicle: saline with Tween-80 99 % of control | dose: 400.0 mg/kg/injection, schedule: Q01DX001 (ip), vehicle: saline with Tween-80 96 % of control

C=CCSC(=S)Nc1nc2ccc([N+](=O)[O-])cc2s1
inactive: dose: 6.25 mg/kg/injection, schedule: Q01DX009 (ip), vehicle: Klucel (hydroxypropylcellulose) (HPC) 106 % of control | [2] 109 % of control | [3] 103 % of control

CCOC1OCN(C(C)(C)C)CC1(C)C (centres undefined)
inactive: [1] 104 % of control | dose: 50.0 mg/kg/injection, schedule: Q01DX009 (ip), vehicle: saline with Tween-80 120 % of control

C1CCC2[N-]CC3CCCCC3[N-]CC3CCCCC3[N-]CC3CCCCC3[N-]CC2C1.[Ni+2].[O-][Cl+3]([O-])([O-])O (centres undefined)
inactive: [9] 96 % of control

COC(=O)/C=C/N=[N+]=[N-]
inactive: dose: 60.0 mg/kg/injection, schedule: Q01DX005 (ip), vehicle: saline with Tween-80 106 % of control | dose: 120.0 mg/kg/injection, schedule: Q01DX005 (ip), vehicle: saline with Tween-80 106 % of control | dose: 240.0 mg/kg/injection, schedule: Q01DX005 (ip), vehicle: saline with Tween-80 106 % of control

[Cl][Sn]([O][Sn]([Cl])([c]1ccccc1)[CH]1CCCCC1)([c]1ccccc1)[CH]1CCCCC1 (centres undefined)
inactive: dose: 0.19 mg/kg/injection, schedule: Q01DX005 (ip), vehicle: saline 100 % of control | dose: 0.39 mg/kg/injection, schedule: Q01DX005 (ip), vehicle: saline 105 % of control | dose: 0.79 mg/kg/injection, schedule: Q01DX005 (ip), vehicle: saline 117 % of control

c1ccc2[s+]csc2c1
inactive: dose: 6.25 mg/kg/injection, schedule: Q01DX009 (ip), vehicle: distilled water + Tween-80 102 % of control | dose: 12.5 mg/kg/injection, schedule: Q01DX009 (ip), vehicle: distilled water + Tween-80 92 % of control | dose: 25.0 mg/kg/injection, schedule: Q01DX009 (ip), vehicle: distilled water + Tween-80 107 % of control | dose: 50.0 mg/kg/injection, schedule: Q01DX009 (ip), vehicle: distilled water + Tween-80 108 % of control | dose: 100.0 mg/kg/injection, schedule: Q01DX009 (ip), vehicle: distilled water + Tween-80 93 % of control

OCCOCCSc1ccccn1
inactive: [10] 109 % of control | dose: 100.0 mg/kg/injection, schedule: Q01DX005 (ip), vehicle: saline 111 % of control | dose: 200.0 mg/kg/injection, schedule: Q01DX005 (ip), vehicle: saline 111 % of control

CC1=CC(C)(C)N=C(N)N1
inactive: dose: 12.5 mg/kg/injection, schedule: Q01DX005 (ip), vehicle: saline 98 % of control | dose: 25.0 mg/kg/injection, schedule: Q01DX005 (ip), vehicle: saline 97 % of control | [10] 105 % of control and 91 % of control
